What was measured:
[1] = Optical absorption spectra; format: physicochemical
apoglucose oxidase = apoglucose oxidase (Aspergillus niger, UniProt P13006); experiment: Activation of apoglucose oxidase by FAD-labeled conjugate (ANS comparison); format: biochemical
Description: For the purposes of comparison, a series of apoenzyme reactivation measurements were set up with different concentrations of the conventionally used blocking agent ANS. The following reagents were prepared:
0.105M potassium phosphate buffer, pH 7.0
1.1% (w:v) bovine serum albumin
5.26 nM FAD-labeled conjugate, supra
4 μM apoglucose oxidase, supra
50 mM phosphate buffer, pH 7.0
Apoenzyme activity was determined by placing 50 μl of Reagent B in a cuvette and starting the reaction by addition of 1.90 ml of Reagent A. The assay reactions were incubated for 10 minutes at room temperature and the absorbances at 520 nm recorded.

[2] = test system: anti(thyroxine) antiserum / apoglucose oxidase; experiment: Apoenzyme reactivation immunoassay system for serum thyroxine; format: biochemical; conditions: 2 mM sodium salt of dissociating agent in buffer
Description: Standard curves for serum thyroxine were generated using a semiautomated assay protocol on the Gilford Clinical Chemistry Analyzer System 203-S (Gilford Instrument Laboratories, Oberline, OH, USA). […] The FAD-thyroxine conjugate (40 nM in 0.1M sodium phosphate, pH 7.0, 0.01% Triton X-100) as a 0.05 ml aliquot was added to the reaction cup and allowed to equilibrate for 30 seconds. The reaction was initiated by addition of 0.10 ml 1.0 μM apoglucose oxidase, 2 mM 4-aminoantipyrine, 12% glycerol, 80 mM sodium phosphate, pH 7.0. The absorbance at 520 nm was recorded after an 8 minute incubation.

[3] = test system: serum proteins (thyroxine binding protein, TBP); experiment: Effect of pH on the dissociation of iodothyronine from serum proteins; set-up: species or system human; conditions: over the range pH 6.0-8.0; 2.0 mM
Description: Radioactive iodine labeled thyroxine (^125 I-thyroxine obtained from Amersham-Searle, Arlington Heights, IL, USA) was equilibrated with 5 ml of normal human serum for 48 hours at 4° C. […] After 5 minutes of incubation at room temperature, a 165 μl aliquot was applied to a Sephadex® column from a Seralute® thyroxine assay kit (Miles Laboratories, Inc., Ames Division, Elkhart, IN, USA), which had been equilibrated with 0.1M sodium phosphate, pH 7.0. The total radioactivity applied to the columns was measured and the undissociated material was washed through the column with 3 ml of buffer. The columns were counted to determine the percentage of thyroxine dissociated from the serum proteins.
Using the column procedure described in the second study in Example 1, the pH of the 0.1M sodium phosphate was varied and the concentration of the dissociating agent held constant at 2.0 mM. The columns were equilibrated with buffer containing the dissociating agent at the given pH and 165 μl of the serum diluted in buffer at the given pH (as described above) was applied to the column. The total counts were measured and then the columns were washed with buffer at the given pH. The counts remaining on the column represent the percentage of iodothyronine dissociated.

[4] = 50 μM solution in 0.1M phosphate buffer, pH 7.0

Chain of apoglucose oxidase (P13006 17-605): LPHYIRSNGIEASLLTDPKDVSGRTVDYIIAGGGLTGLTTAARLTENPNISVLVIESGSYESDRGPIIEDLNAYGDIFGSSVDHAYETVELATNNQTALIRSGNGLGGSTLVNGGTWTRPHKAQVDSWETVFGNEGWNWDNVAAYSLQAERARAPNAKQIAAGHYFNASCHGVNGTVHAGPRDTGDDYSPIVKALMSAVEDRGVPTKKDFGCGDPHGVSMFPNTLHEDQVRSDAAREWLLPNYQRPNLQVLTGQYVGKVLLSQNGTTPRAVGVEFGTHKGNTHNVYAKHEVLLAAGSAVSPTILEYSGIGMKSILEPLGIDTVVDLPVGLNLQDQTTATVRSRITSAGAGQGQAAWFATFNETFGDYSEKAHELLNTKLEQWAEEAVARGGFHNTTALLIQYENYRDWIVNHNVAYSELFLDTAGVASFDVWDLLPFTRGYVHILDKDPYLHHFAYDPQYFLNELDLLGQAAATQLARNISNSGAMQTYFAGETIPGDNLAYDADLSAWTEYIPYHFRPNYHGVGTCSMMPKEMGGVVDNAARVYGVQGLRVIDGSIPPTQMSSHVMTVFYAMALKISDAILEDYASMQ

For `O=S(=O)(O)c1cccc2cccc(Nc3ccccc3)c12` [ANS, 8-anilino-1-naphthalenesulfonic acid], the broad absorption band [1, 4] was 300-400 nm, the “wavelength of absorption peak” value [1, 4] was “about 350 nm” and the absorption peak height ([1]; 50 μM solution in 0.1M phosphate buffer, pH 7.0, at about 350 nm) was 0.5. The activity at 100 µM (apoglucose oxidase; 10 min, pH 7, 0.1 mM ANS in Reagent A, room temperature, read-out: Percent Apoglucose Oxidase Activity) was 64%, the activity at 200 µM (apoglucose oxidase; 10 min, pH 7, 0.2 mM ANS in Reagent A, room temperature, read-out: Percent Apoglucose Oxidase Activity) was 46% and the activity at 500 µM (apoglucose oxidase; 10 min, pH 7, 0.5 mM ANS in Reagent A, room temperature, read-out: Percent Apoglucose Oxidase Activity) was 13%. For the same compound, the activity at 1000 µM (apoglucose oxidase; 10 min, pH 7, 1.0 mM ANS in Reagent A, room temperature, read-out: Percent Apoglucose Oxidase Activity) was 0% and the “effect on the recombination reaction of apoglucose oxidase and FAD-labeled conjugate” value (apoglucose oxidase; ANS concentrations above about 1.0 mM) was “totally inhibit”.
In the case of `O=C(O)Cc1ccccc1Nc1c(Cl)cccc1Cl` [Diclofenac, 2-(2,6-dichlorophenylamino)phenylacetic acid], the λmax ([1]; in 0.1M sodium hydroxide) is reported as 275 nanometers, the λmin ([1]; in 0.1M sodium hydroxide) is reported as 248 nanometers and the “ε min (NaOH), extinction coefficient” value ([1]; in 0.1M sodium hydroxide, at λmin) is reported as 6400 M⁻¹ cm⁻¹. For the same compound, the “Absorbance (520 nm)” value ([2]; Thyroxine Standard 0 μg/L) was 0.619, the “Absorbance (520 nm)” value ([2]; Thyroxine Standard 25 μg/L) was 0.620 and the “Absorbance (520 nm)” value ([2]; Thyroxine Standard 75 μg/L) was 0.647. For the same compound, the “Absorbance (520 nm)” value ([2]; Thyroxine Standard 125 μg/L) was 0.678, the “Absorbance (520 nm)” value ([2]; Thyroxine Standard 200 μg/L) was 0.719 and the “pH dependence of the dissociation of iodothyronine from serum proteins” value [3] was “independent of pH”.
